Test results: patent US9034863B2, “Compositions and methods for inhibiting entry of a hepatic virus” (The Board of Trustees of the University of Illinois, priority 2008, dated 2015)

Columns and labels:
HCVcc JFH-1 = assay: Acute HCVcc infection of Huh7 cells, HCV RNA by RT-qPCR; type: cell-based, Hepatitis C virus (HCV)
Description: For experiments in growing cells, Huh7 cells were seeded 24 hours prior to use at 4×10^3 cells in each well of a 96-well plate (BD Biosciences, San Jose, Calif.). For experiments in non-growing cells, Huh7 cells were seeded in 96-well BIOCOAT culture plates (BD Biosciences) at a density of 8×10^3 cells/well in cDMEM. Upon reaching 90% confluence, media was replaced with 200 μl cDMEM supplemented with 1% (v/v) DMSO (Sigma), and cells were cultured for an additional 20 days, replacing medium every 2 days (Sainz, Jr. & Chisari (2006) J. Virol. 80:10253-7; Choi, et al. (2009) Xenobiotica 39:205-17). Cells were infected with HCVcc JFH-1 at an MOI of 1.0 or 0.1 FFU/cell for 12 hours. Cells were mock-treated or treated with increasing concentrations of ezetimibe 6 hours prior to infection (PRE), during the time of infection for 12 hours (CO), or immediately following infection for 60 hours (POST). For RT-qPCR analysis, total cellular RNA was extracted in 1× Nucleic Acid Purification Lysis Solution (Applied Biosystems, Foster City, Calif.) from triplicate wells at indicated times post infection. For HCV E2-positive foci assay analysis, medium was removed and cells were fixed with 4% paraformaldehyde (w/v) (Sigma) 72 hours post-infection and immunohistochemical staining for HCV E2 was performed as described herein.
Total cellular RNA was purified using an ABI PRISM™ 6100 Nucleic Acid PrepStation (Applied Biosystems), as per the manufacturer's instructions. One μg of purified RNA was used for cDNA synthesis using the TAQMAN reverse transcription reagents (Applied Biosystems), followed by SYBR green RT-qPCR using an Applied Biosystems 7300 real-time thermocycler (Applied Biosystems). […] HCV JFH-1 and human GAPDH RNA transcript levels were determined relative to a standard curve derived from serial dilutions of plasmid containing the JFH-1 HCV cDNA or the human GAPDH coding sequence, respectively. […]
Likewise dose-dependent and time-of-addition-dependent inhibition of HCV infection was observed when HCV RNA levels were quantified by RT-qPCR 24, 48 and 72 hours p.i.

Huh7 cells = assay: Cell proliferation assay (cellular ATP, […] Plus); type: cell-based, human; conditions: increasing doses
Text: The […] Plus Cell Proliferation assay kit (Lonza, Walkersville, Md.), which incorporates bioluminescent detection of cellular ATP as a measure of cell viability and proliferation, was used according to the manufacturer's instructions. Briefly, mock-treated and drug-treated cultures were lysed in Cell Lysis reagent for […]. One hundred μl of culture medium was transferred to white 96-well plates (BD Biosciences) containing ATP detection reagent and luminescence, expressed as relative light units (RLU), was measured (Fluostar OPTIMA). To assess drug-induced cellular toxicity, a bioluminescence-based assay (The TOXILIGHT BioAssay Kit, Lonza) that measures adenylate kinase (AK) released from damaged cells was used as per the manufacturer's instructions. […] One hundred μl of AK detection reagent was then added to each well, and luminescence (RLU) was measured (Fluostar OPTIMA).
To ensure that the inhibition observed was not due to ezetimibe-induced changes in cell proliferation or cytotoxicity, cellular ATP was measured as a read-out of Huh7 cell viability and proliferation and cellular toxicity by adenylate kinase release following treatment with increasing doses of ezetimibe. […] Furthermore, to test the specificity of the observed HCV inhibition, the effect of ezetimibe on entry of another flavivirus, Dengue virus (DNV), was assessed.

SMILES: O=C1[C@H](CC[C@H](O)c2ccc(F)cc2)[C@@H](c2ccc(O)cc2)N1c1ccc(F)cc1 [ezetimibe, 1-(4-fluorophenyl)-(3R)-[3-(4-fluorophenyl)-(3S)-hydroxypropyl]-(45)-(4-hydroxyphenyl)-2-azetidinone]
- inhibition of HCV infection (HCV RNA levels) (HCVcc JFH-1; addition post-infection, 72 hours p.i.): ineffective
- inhibition of HCV infection (HCV RNA levels) (HCVcc JFH-1; co-treatment): potently inhibited HCV infection
- protection of cells from subsequent infection, duration (HCVcc JFH-1; pre-treatment with 25 μM for 6 hours before infection): at least 48 hours
- cell proliferation (cellular ATP) (Huh7 cells): did not inhibit cell proliferation
